# Several values for one entry are separate records, joined by “and”; a condition that tells them apart may be missing. Identical values can stand only once. Entries after “also recorded” stand apart in the source; their conditions may differ. Counter-ions that a name gives are not always drawn. Like-named read-outs stand apart in the source and are kept apart here.
# Key:
# anti-Chlamydia abzymes [1] = format: biochemical, human; parameters: key to In-vitro Inhibition: + = inhibition; − = no inhibition
# anti-Chlamydia abzymes [2] = format: in vivo, human; conditions: for abzyme activity of individuals, + aspirin: self-reported aspirin takers, one value per individual
# [3] = Clinical condition, modified Rose-Blackburn Questionnaire; format: in vivo, human
# Excerpt: The progression of the clinical condition of the patients was monitored by the use of the modified Bruce Protocol for treadmill exercise/stress ECG testing and on the Rose-Blackburn Questionnaire (Cardiovascular Survey Methods. WHO, Geneva, 1968)
# lesion IgG = test: LDL peroxidation by lesion IgG (MDA); format: biochemical, human
# [4] = system: Chlamydia pneumoniae or Chlamydia Psittaci; format: biochemical
# [5] = 10 μM of each agent, control 24.3
compound,measurement,setting,value
"CC(=O)Oc1ccccc1C(=O)O [Aspirin, acetylsalicylic acid]",Result (inhibition of anti-Chlamydia abzymes),anti-Chlamydia abzymes [1]; 10 μM of each agent,Positive
same,Lipid oxidising activity of anti-Chlamydia abzymes,anti-Chlamydia abzymes [1]; [5],6.2 μM MDA/ml
same,abzyme activity after a week,"anti-Chlamydia abzymes [2]; 250 mg aspirin daily, the other two CHD patients",undetectably low level
same,"abzyme activity, aspirin alone","anti-Chlamydia abzymes [2]; Therapy Group D, 250 mg daily",reduction in the abzyme activity but to a lesser degree than observed with the combination
same,"individuals positive for abzymes / individuals, + aspirin",anti-Chlamydia abzymes [2]; stable angina class I,1/6
same,"percentage positive for abzymes, + aspirin",anti-Chlamydia abzymes [2]; stable angina class I,17%
same,"abzyme activity, group mean, + aspirin","anti-Chlamydia abzymes [2]; stable angina class I, n = 6, without aspirin 30.0",10.0
same,"abzyme activity of individuals, + aspirin",anti-Chlamydia abzymes [2]; stable angina class I,5 and 45 and 0 (3×) and 10
same,"individuals positive for abzymes / individuals, + aspirin",anti-Chlamydia abzymes [2]; stable angina class II,4/15
same,"percentage positive for abzymes, + aspirin",anti-Chlamydia abzymes [2]; stable angina class II,27%
same,"abzyme activity, group mean, + aspirin","anti-Chlamydia abzymes [2]; stable angina class II, n = 15, without aspirin 32.2",9.2
same,"abzyme activity of individuals, + aspirin",anti-Chlamydia abzymes [2]; stable angina class II,5 (4×) and 10 (2×) and 0 (4×) and 25 and 3.3 and 30
same,"individuals positive for abzymes / individuals, + aspirin",anti-Chlamydia abzymes [2]; stable angina class III,6/10
same,"percentage positive for abzymes, + aspirin",anti-Chlamydia abzymes [2]; stable angina class III,60%
same,"abzyme activity of individuals, + aspirin",anti-Chlamydia abzymes [2]; stable angina class III,0 (3×) and 45 and 5 and 35 and 15 and 30 and 20
same,"individuals positive for abzymes / individuals, + aspirin",anti-Chlamydia abzymes [2]; unstable angina IV,6/7
same,"percentage positive for abzymes, + aspirin",anti-Chlamydia abzymes [2]; unstable angina IV,86%
same,"abzyme activity of individuals, + aspirin",anti-Chlamydia abzymes [2]; unstable angina IV,130 and 70 and 0 and 37 and 90 and 100 and 180
CC[C@H]1OC(=O)[C@H](C)[C@@H](O[C@H]2C[C@@](C)(OC)[C@@H](O)[C@H](C)O2)[C@H](C)[C@@H](O[C@@H]2O[C@H](C)C[C@H](N(C)C)[C@H]2O)[C@](C)(O)C[C@@H](C)CN(C)[C@H](C)[C@@H](O)[C@]1(C)O [Azithromycin],in vitro inhibition of abzyme activity,anti-Chlamydia abzymes [1],strong in vitro inhibitor of abzyme activity
same,Lipid oxidising activity of anti-Chlamydia abzymes,"anti-Chlamydia abzymes [1]; in DMSO, 5 μM, control 61, DMSO effect deducted",0 μM MDA/ml
same,Clinical condition After 15 days of treatment,"[3]; Table 17, anti-microbial agent only, single patients",angina class II;; also recorded: Stable condition;
same,"Score by modified Rose-Blackburn Questionnaire, 60 days after start of the treatment, group mean","[3]; before: A 19.4 ± 1.79, B 20.4 ± 1.24, C 18.6 ± 0.81",14.4 ± 1.14
same,Abzyme activity after 15 days / two weeks,"anti-Chlamydia abzymes [2]; Example 8, stable angina patients",reduced abzyme activity
same,"Anti-Chlamydia abzyme activity, 45 days, group mean","anti-Chlamydia abzymes [2]; Therapy Group A, before 47.5",7.4 μM MDA/ml
same,"Anti-Chlamydia abzyme activity, 60 days, group mean","anti-Chlamydia abzymes [2]; Therapy Group A, before 47.5",1.6 μM MDA/ml
CCN(CC)C(=S)S [DDC],In-vitro Inhibition,anti-Chlamydia abzymes [1],+
same,Result (inhibition of anti-Chlamydia abzymes),anti-Chlamydia abzymes [1]; 10 μM of each agent,Positive
same,Lipid oxidising activity of anti-Chlamydia abzymes,anti-Chlamydia abzymes [1]; [5],0 μM MDA/ml
C[S+](C)[O-] [DMSO],Level of MDA production by 0.82 μg of lesion IgG,"lesion IgG; +1% antioxidant, LDL 480 μg of protein, control 0.49 ± 0.023",0 µM
same,development of lipid oxidation reaction after treatment of Chlamydia with chaotropic agents,[4],completely abrogated
O=C(O)CN(CCN(CC(=O)O)CC(=O)O)CCN(CC(=O)O)CC(=O)O [DTPA],Result (inhibition of anti-Chlamydia abzymes),anti-Chlamydia abzymes [1]; 10 μM of each agent,Negative
O=[N+]([O-])OCC(CO[N+](=O)[O-])O[N+](=O)[O-] [Glyceryl Trinitrate],Anti-Abzyme accivity,"anti-Chlamydia abzymes [1]; 4.4 μM, control 21.7",0 μM MDA/ml
same,Anti-Abzyme accivity,"anti-Chlamydia abzymes [1]; 22 μM, control 21.7",0 μM MDA/ml
same,Anti-Abzyme accivity,"anti-Chlamydia abzymes [1]; 44 μM, control 21.7",0 μM MDA/ml
same,Anti-Abzyme accivity,"anti-Chlamydia abzymes [1]; 220 μM, control 21.7",0 μM MDA/ml
O=[N+]([O-])O[C@H]1CO[C@H]2[C@@H]1OC[C@H]2O[N+](=O)[O-] [Isosorbide Dinitrate],Anti-Abzyme accivity,"anti-Chlamydia abzymes [1]; 42 μM, control 21.7",0 μM MDA/ml
same,Anti-Abzyme accivity,"anti-Chlamydia abzymes [1]; 211 μM, control 21.7",0 μM MDA/ml
CCC[C@@H]1C[C@@H](C(=O)N[C@@H]([C@H]2O[C@H](SC)[C@H](O)[C@@H](O)[C@H]2O)[C@@H](C)O)N(C)C1 [Lincomycin Hydrochloride],Anti-Abzyme accivity,"anti-Chlamydia abzymes [1]; 6.5 μM, control 21.7",28.5 μM MDA/ml
same,Anti-Abzyme accivity,"anti-Chlamydia abzymes [1]; 13 μM, control 21.7",30.3 μM MDA/ml
[N-]=[N+]=[N-].[Na+] [NaN1],Result (inhibition of anti-Chlamydia abzymes),anti-Chlamydia abzymes [1]; 10 μM of each agent,Positive
same,Lipid oxidising activity of anti-Chlamydia abzymes,anti-Chlamydia abzymes [1]; [5],0 μM MDA/ml
CC(C)(S)[C@@H](N)C(=O)O [Penicillamine],Result (inhibition of anti-Chlamydia abzymes),anti-Chlamydia abzymes [1]; 10 μM of each agent,Positive
same,Lipid oxidising activity of anti-Chlamydia abzymes,anti-Chlamydia abzymes [1]; [5],0 μM MDA/ml
O=C(O)c1ccccn1 [Picolinic acid],Result (inhibition of anti-Chlamydia abzymes),anti-Chlamydia abzymes [1]; 10 μM of each agent,Positive
same,Lipid oxidising activity of anti-Chlamydia abzymes,anti-Chlamydia abzymes [1]; [5],0 μM MDA/ml
CC(C)NCC(O)COc1cccc2ccccc12 (stereo not shown) [Propranolol Hydrochloride],Anti-Abzyme accivity,anti-Chlamydia abzymes [1]; Hydrochloride,21.3 μM MDA/ml and 18.3 μM MDA/ml
CCCCCCCCCCCCOS(=O)(=O)[O-].[Na+] [SDS],lipid oxidising reaction with treated Chlamydia samples,[4],no lipid oxidising reaction
N.N.O=S(=O)(O)O [ammonium sulphate],lipid oxidising reaction with treated Chlamydia samples,[4],no lipid oxidising reaction
O=C(O)c1ccccc1 [benzoic acid],Level of MDA production by 0.82 μg of lesion IgG,lesion IgG; pH 5.6,0 µM
C=O [formalin],lipid oxidising reaction with treated Chlamydia samples,[4],no lipid oxidising reaction
O=C[O-].[Na+] [sodium formate],Level of MDA production by 0.82 μg of lesion IgG,"lesion IgG; +0.1 M antioxidant, LDL 480 μg of protein, 16 h 37° C. pH 5.6, control 0.49 ± 0.023",0 µM
Heparin,Anti-Abzyme accivity,"anti-Chlamydia abzymes [1]; 0.1 mg/ml, control 21.7",19.7 μM MDA/ml
Igepal CA-630,development of lipid oxidation reaction after treatment of Chlamydia with chaotropic agents,[4],completely abrogated
same,oxidation of the lipids in the bacteria by the extracted abzymes after detergent treatment,[4],abolished
Nadroparin Calcium,Anti-Abzyme accivity,"anti-Chlamydia abzymes [1]; 5 UI, control 21.7",20.5 μM MDA/ml
same,Anti-Abzyme accivity,"anti-Chlamydia abzymes [1]; 65 UI, control 21.7",12.8 μM MDA/ml
Triton X-100,development of lipid oxidation reaction after treatment of Chlamydia with chaotropic agents,[4],completely abrogated
same,oxidation of the lipids in the bacteria by the extracted abzymes after detergent treatment,[4],abolished

# Source: US7148028B2, “Methods and means relating to atherosclerosis” (priority 2001, dated 2006)
